Consider seven molecules from PubChem BioAssay AID1259407 (Chemical Carcinogenesis Research Information System (CCRIS), 2018).

The data set deals with CCRIS mutagenicity, Ames/micronucleus/aberration tests. Nature of the data set: CCRIS mutagenicity studies.
Where [1] appears, read: Test System: AMES SALMONELLA TYPHIMURIUM, Strain/Indicator: TA98, Metabolic Activation: NONE, Method: STANDARD PLATE.
The mark [2] stands for this setting: Test System: AMES SALMONELLA TYPHIMURIUM, Strain/Indicator: TA100, Metabolic Activation: NONE, Method: STANDARD PLATE.
The mark [3] stands for this setting: Test System: AMES SALMONELLA TYPHIMURIUM, Strain/Indicator: TA100, Metabolic Activation: RAT, LIVER, S-9, AROCLOR 1254, Method: STANDARD PLATE.

SMILES strings stand for the structures. Entries after “also recorded” stand apart in the source; their conditions may differ. Calls of active or inactive are those of the source. No rule for the calls is given here.

On to `CC=C(C)C(=O)O[C@H]1[C@H](OC(C)=O)[C@]2(CO)[C@H](O)C[C@]3(C)C(=CC[C@@H]4[C@@]5(C)CC[C@@H](O[C@@H]6O[C@H](C(=O)O)[C@@H](O[C@@H]7O[C@H](CO)[C@@H](O)[C@H](O)[C@H]7O)[C@H](O)[C@H]6O[C@@H]6O[C@H](CO)[C@@H](O)[C@H](O)[C@H]6O)[C@](C)(CO)[C@@H]5CC[C@]43C)[C@@H]2CC1(C)C`, for which the mutagenic call was “inactive; negative” (Test System: AMES SALMONELLA TYPHIMURIUM, Strain/Indicator: TA97, Metabolic Activation: NONE, Method: STANDARD PLATE); “inactive; negative” (Test System: AMES SALMONELLA TYPHIMURIUM, Strain/Indicator: TA97, Metabolic Activation: RAT, LIVER, S-9, AROCLOR 1254, Method: STANDARD PLATE); “inactive; negative” under setting [1]; “inactive; negative” (Test System: AMES SALMONELLA TYPHIMURIUM, Strain/Indicator: TA98, Metabolic Activation: RAT, LIVER, S-9, AROCLOR 1254, Method: STANDARD PLATE); “inactive; negative” under setting [2]; “inactive; negative” under setting [3]. Further, the mutagenic call reads like this: (Test System: AMES SALMONELLA TYPHIMURIUM, Strain/Indicator: TA102, Metabolic Activation: NONE, Method: STANDARD PLATE) “inactive; negative”; (Test System: AMES SALMONELLA TYPHIMURIUM, Strain/Indicator: TA102, Metabolic Activation: RAT, LIVER, S-9, AROCLOR 1254, Method: STANDARD PLATE) “inactive; negative”.
For `Cc1cc2c(O)cccc2c2cc3c(cc12)C=C[C@H](O)[C@H]3O`, the mutagenic call (Test System: AMES SALMONELLA TYPHIMURIUM, Strain/Indicator: TA100, Metabolic Activation: RAT, LIVER, S-9, AROCLOR 1254, Method: PREINCUBATION) is “active; positive”.
As to `O[C@@H]1C=Cc2c(ccc3c2ccc2ccccc23)[C@H]1O`, the mutagenic call reads like this: under setting [1], “inactive; negative”; (Test System: AMES SALMONELLA TYPHIMURIUM, Strain/Indicator: TA100, Metabolic Activation: EPITHELIAL CELL-MEDIATED, AROCLOR 1254, Method: PREINCUBATION) “active; positive”; (Test System: AMES SALMONELLA TYPHIMURIUM, Strain/Indicator: TA100, Metabolic Activation: EPITHELIAL CELL-MEDIATED, Method: PREINCUBATION) “inactive; negative”; (Test System: AMES SALMONELLA TYPHIMURIUM, Strain/Indicator: TA100, Metabolic Activation: KUPFFER CELL-MEDIATED, AROCLOR 1254, Method: PREINCUBATION) “active; positive”; (Test System: AMES SALMONELLA TYPHIMURIUM, Strain/Indicator: TA100, Metabolic Activation: KUPFFER CELL-MEDIATED, Method: PREINCUBATION) “inactive; negative”; under setting [2], “inactive; negative”. The mutagenic call by setting is: (Test System: AMES SALMONELLA TYPHIMURIUM, Strain/Indicator: TA100, Metabolic Activation: PARENCHYMAL CELL-MEDIATED, AROCLOR 1254, Method: PREINCUBATION) “active; positive”; (Test System: AMES SALMONELLA TYPHIMURIUM, Strain/Indicator: TA100, Metabolic Activation: PARENCHYMAL CELL-MEDIATED, NADPH, Method: PREINCUBATION) “active; positive”; (Test System: AMES SALMONELLA TYPHIMURIUM, Strain/Indicator: TA100, Metabolic Activation: PARENCHYMAL CELL-MEDIATED, Method: PREINCUBATION) “inactive; negative”; under setting [3], “active; positive”.
For the molecule `c1ccc([C@H]2N[C@H]2c2ccccc2)cc1`, the mutagenic call under setting [1] was “inactive; negative”; the mutagenic call under setting [2] is “active; positive”; the mutagenic call (Test System: AMES SALMONELLA TYPHIMURIUM, Strain/Indicator: TA1537, Metabolic Activation: NONE, Method: STANDARD PLATE) is “inactive; negative”.
As to `CCSC(C)CC1CC(=O)C(/C(CC)=N/OC/C=C/Cl)=C(O)C1` (stereo unspecified), the mutagenic call runs as follows: (End Point: In vitro chromosomal aberrations, Test System: Chinese hamster ovary (CHO) cells, Metabolic Activation: None) “inactive; negative (purity 96.1%); also recorded: active; positive (structural changes; purity 81.4%)”; (End Point: In vitro chromosomal aberrations, Test System: Chinese hamster ovary (CHO) cells, Metabolic Activation: Rat, liver, S-9, Aroclor 1254) “inactive; negative (purity 96.1%)”; (End Point: In vivo chromosomal aberrations, Test System: Bone marrow, Species: Rat, Strain/Sex: Sprague-Dawley/Female, Route: Gavage) “inactive; negative (purity 83.3%)”; (End Point: In vivo chromosomal aberrations, Test System: Bone marrow, Species: Rat, Strain/Sex: Sprague-Dawley/Male, Route: Gavage) “inactive; negative (purity 83.3%)”; (Test System: Ames Salmonella typhimurium, Strain/Indicator: TA98, Metabolic Activation: None, Method: Standard Plate) “inactive; negative (purity 83.3%)”; (Test System: Ames Salmonella typhimurium, Strain/Indicator: TA98, Metabolic Activation: Rat, liver, S-9, Aroclor, Method: Standard Plate) “inactive; negative (purity 83.3%)”. Moreover, the mutagenic call reads like this: (Test System: Ames Salmonella typhimurium, Strain/Indicator: TA100, Metabolic Activation: None, Method: Standard Plate) “inactive; negative (purity 83.3%)”; (Test System: Ames Salmonella typhimurium, Strain/Indicator: TA100, Metabolic Activation: Rat, liver, S-9, Aroclor, Method: Standard Plate) “inactive; negative (purity 83.3%)”; (Test System: Ames Salmonella typhimurium, Strain/Indicator: TA1535, Metabolic Activation: None, Method: Standard Plate) “inactive; negative (purity 83.3%)”; (Test System: Ames Salmonella typhimurium, Strain/Indicator: TA1535, Metabolic Activation: Rat, liver, S-9, Aroclor, Method: Standard Plate) “inactive; negative (purity 83.3%)”; (Test System: Ames Salmonella typhimurium, Strain/Indicator: TA1537, Metabolic Activation: None, Method: Standard Plate) “inactive; negative (purity 83.3%)”; (Test System: Ames Salmonella typhimurium, Strain/Indicator: TA1537, Metabolic Activation: Rat, liver, S-9, Aroclor, Method: Standard Plate) “inactive; negative (purity 83.3%)”. Further, the mutagenic call was “inactive; negative (purity 83.3%)” (Test System: E. coli, Strain/Indicator: WP2uvrA, Metabolic Activation: None, Method: Standard Plate); “inactive; negative (purity 83.3%)” (Test System: E. coli, Strain/Indicator: WP2uvrA, Metabolic Activation: Rat, liver, S-9, Aroclor, Method: Standard Plate); “inactive; negative (purity 83.3%)” (Test System: UDS Mouse hepatocytes, Strain/Indicator: Thymidine incorporation, Metabolic Activation: Activation in whole animal, Method: Autoradiography).
With `Cc1ccccc1O`, the mutagenic call (Test System: Ames Salmonella typhimurium, Strain/Indicator: TA98, Metabolic Activation: Hamster, Liver, S-9, Aroclor 1254 (10%), Method: Preincubation) is “inactive; negative”; the mutagenic call (Test System: Ames Salmonella typhimurium, Strain/Indicator: TA98, Metabolic Activation: None, Method: Preincubation) was “inactive; negative”; the mutagenic call (Test System: Ames Salmonella typhimurium, Strain/Indicator: TA98, Metabolic Activation: Rat, Liver, S-9, Aroclor 1254 (10%), Method: Preincubation) was “inactive; negative”; the mutagenic call (Test System: Ames Salmonella typhimurium, Strain/Indicator: TA100, Metabolic Activation: Hamster, Liver, S-9, Aroclor 1254 (10%), Method: Preincubation) is “inactive; negative”; the mutagenic call (Test System: Ames Salmonella typhimurium, Strain/Indicator: TA100, Metabolic Activation: None, Method: Preincubation) is “inactive; negative”; the mutagenic call (Test System: Ames Salmonella typhimurium, Strain/Indicator: TA100, Metabolic Activation: Rat, Liver, S-9, Aroclor 1254 (10%), Method: Preincubation) is “inactive; negative”. Moreover, the mutagenic call runs as follows: (Test System: Ames Salmonella typhimurium, Strain/Indicator: TA1535, Metabolic Activation: Hamster, Liver, S-9, Aroclor 1254 (10%), Method: Preincubation) “inactive; negative”; (Test System: Ames Salmonella typhimurium, Strain/Indicator: TA1535, Metabolic Activation: None, Method: Preincubation) “inactive; negative”; (Test System: Ames Salmonella typhimurium, Strain/Indicator: TA1535, Metabolic Activation: Rat, Liver, S-9, Aroclor 1254 (10%), Method: Preincubation) “inactive; negative”; (Test System: Ames Salmonella typhimurium, Strain/Indicator: TA1537, Metabolic Activation: Hamster, Liver, S-9, Aroclor 1254 (10%), Method: Preincubation) “inactive; negative”; (Test System: Ames Salmonella typhimurium, Strain/Indicator: TA1537, Metabolic Activation: None, Method: Preincubation) “inactive; negative”; (Test System: Ames Salmonella typhimurium, Strain/Indicator: TA1537, Metabolic Activation: Rat, Liver, S-9, Aroclor 1254 (10%), Method: Preincubation) “inactive; negative”.
`CCCCCCCCCCCCCC(=O)O[C@@H]1[C@@H](C)[C@@]2(O)[C@@H](C=C(CO)C[C@]3(O)C(=O)C(C)=C[C@@H]23)[C@@H]2C(C)(C)[C@]12OC(C)=O`: the mutagenic call was “inactive; negative” (End Point: IN VITRO CHROMOSOMAL ABERRATIONS, Test System: CHL/IU CELLS, Metabolic Activation: NONE) and “inactive; negative” (End Point: IN VITRO MICRONUCLEUS, Test System: CHL/IU CELLS, Metabolic Activation: NONE).
